Data from ChEMBL document CHEMBL5665443, “Enzyme Inhibitor Single Concentration assay results for EUbOPEN Chemogenomics Library” (2024).
Where “and” joins values, the source holds several entries; their conditions need not be identical. Equal entries are not always repeated.

Legend:
Details in all cases: Compound Concentration 10.0 uM, Hit No
[1] = target: G/T mismatch-specific thymine DNA glycosylase (Homo sapiens) (UniProt Q13569);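 note: human TDG cleavage of quenched duplex DNA oligonucleotides coupled to APE1, strand release read as fluorescence at 594 nm, inhibition of TDG activity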
G/T mismatch-specific thymine DNA glycosylase (Homo sapiens), sequence (Q13569 whole entry, the tested form may be a part): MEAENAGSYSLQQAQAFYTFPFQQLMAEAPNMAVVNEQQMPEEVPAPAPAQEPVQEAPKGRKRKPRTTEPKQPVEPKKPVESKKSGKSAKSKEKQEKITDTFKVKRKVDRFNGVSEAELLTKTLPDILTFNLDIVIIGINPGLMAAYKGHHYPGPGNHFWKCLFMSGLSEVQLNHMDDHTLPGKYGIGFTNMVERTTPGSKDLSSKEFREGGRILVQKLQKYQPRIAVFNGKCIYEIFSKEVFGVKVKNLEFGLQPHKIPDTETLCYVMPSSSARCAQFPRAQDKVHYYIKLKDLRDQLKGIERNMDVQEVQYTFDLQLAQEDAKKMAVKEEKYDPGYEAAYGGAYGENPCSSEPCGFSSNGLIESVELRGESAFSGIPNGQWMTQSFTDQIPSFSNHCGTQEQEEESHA
Description: Inhibition of TDG by quantifying inhibition of TDG-mediated cleavage and dissociation of quenched duplex DNA oligonucleotides, measured as fluorescence at 594 nm. To generate a functional strand incision and increase turn-over this assay is coupled to APE1.

[2] = target: Methyl-CpG-binding domain protein 4 (Homo sapiens) (UniProt O95243);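 note: MBD4 activity read as fluorescence at 594 nm from cleavage and release of a quenched duplex DNA oligonucleotide, with APE1 coupled to incise the strand and raise turnover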
Methyl-CpG-binding domain protein 4 (Homo sapiens), sequence (O95243 whole entry, the tested form may be a part): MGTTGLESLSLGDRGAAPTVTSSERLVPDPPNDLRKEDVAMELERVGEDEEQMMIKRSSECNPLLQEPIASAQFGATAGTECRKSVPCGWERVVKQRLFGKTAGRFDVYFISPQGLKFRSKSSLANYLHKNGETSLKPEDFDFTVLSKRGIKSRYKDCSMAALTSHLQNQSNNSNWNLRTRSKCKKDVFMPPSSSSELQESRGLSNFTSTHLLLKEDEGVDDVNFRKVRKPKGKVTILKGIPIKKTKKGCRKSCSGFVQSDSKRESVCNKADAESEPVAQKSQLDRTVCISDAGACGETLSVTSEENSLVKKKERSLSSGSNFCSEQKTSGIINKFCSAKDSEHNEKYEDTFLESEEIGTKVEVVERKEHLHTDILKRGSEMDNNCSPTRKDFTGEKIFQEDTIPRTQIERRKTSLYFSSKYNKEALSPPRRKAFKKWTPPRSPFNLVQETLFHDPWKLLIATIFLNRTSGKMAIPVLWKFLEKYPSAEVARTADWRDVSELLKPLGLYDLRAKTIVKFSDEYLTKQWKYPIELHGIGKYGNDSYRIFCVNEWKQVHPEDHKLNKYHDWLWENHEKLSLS
Description: Inhibition of MBD4 by quantifying inhibition of MBD4-mediated cleavage and dissociation of quenched duplex DNA oligonucleotides, measured as fluorescence at 594 nm. To generate a functional strand incision and increase turn-over this assay is coupled to APE1.

[3] = target: T1, Adenine DNA glycosylase (Homo sapiens) (UniProt Q9UIF7);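 note: human MUTYH activity read as 594 nm fluorescence from cleavage and release of a quenched DNA duplex, coupled with APE1 for strand incision, lower signal meaning inhibition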
T1 sequence (whole entry): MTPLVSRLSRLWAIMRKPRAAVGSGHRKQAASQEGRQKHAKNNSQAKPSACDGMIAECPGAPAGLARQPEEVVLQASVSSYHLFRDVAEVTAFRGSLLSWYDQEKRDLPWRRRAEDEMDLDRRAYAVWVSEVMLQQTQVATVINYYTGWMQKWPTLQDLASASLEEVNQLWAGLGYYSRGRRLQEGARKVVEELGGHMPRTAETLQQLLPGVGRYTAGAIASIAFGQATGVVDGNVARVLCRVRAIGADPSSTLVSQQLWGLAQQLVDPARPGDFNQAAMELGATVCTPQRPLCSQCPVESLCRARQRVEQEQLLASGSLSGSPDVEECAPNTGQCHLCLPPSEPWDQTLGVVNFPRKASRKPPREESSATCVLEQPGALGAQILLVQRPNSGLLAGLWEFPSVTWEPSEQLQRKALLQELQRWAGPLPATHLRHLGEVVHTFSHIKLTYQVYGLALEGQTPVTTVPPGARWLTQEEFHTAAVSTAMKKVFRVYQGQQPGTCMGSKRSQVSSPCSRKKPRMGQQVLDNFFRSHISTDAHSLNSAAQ
Description: Inhibition of MUTYH by quantifying inhibition of MUTYH-mediated cleavage and dissociation of quenched duplex DNA oligonucleotides, measured as fluorescence at 594 nm. To generate a functional strand incision and increase turn-over this assay is coupled to APE1.

[4] = target: N-glycosylase/DNA lyase (Homo sapiens) (UniProt O15527);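 note: OGG1 cleavage of a quenched duplex DNA oligonucleotide, coupled to APE1 for strand incision, read as fluorescence at 594 nm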
N-glycosylase/DNA lyase (Homo sapiens), sequence (O15527 whole entry): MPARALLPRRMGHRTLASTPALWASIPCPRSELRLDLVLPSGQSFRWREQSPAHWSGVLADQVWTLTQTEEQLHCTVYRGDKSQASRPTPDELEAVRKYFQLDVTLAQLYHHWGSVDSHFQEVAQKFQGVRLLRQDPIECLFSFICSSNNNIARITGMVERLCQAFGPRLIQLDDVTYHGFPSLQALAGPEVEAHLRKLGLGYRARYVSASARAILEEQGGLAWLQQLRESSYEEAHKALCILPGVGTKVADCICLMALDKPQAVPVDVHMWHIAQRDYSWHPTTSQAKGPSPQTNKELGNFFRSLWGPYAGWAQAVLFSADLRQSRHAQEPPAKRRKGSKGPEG
Description: Inhibition of OGG1 by quantifying inhibition of OGG1-mediated cleavage and dissociation of quenched duplex DNA oligonucleotides, measured as fluorescence at 594 nm. To generate a functional strand incision and increase turn-over this assay is coupled to APE1.

[5] = target: DNA-3-methyladenine glycosylase (Homo sapiens) (UniProt P29372);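 note: enzyme assay where MPG cuts a quenched duplex DNA oligonucleotide probe, paired with APE1 for strand incision and turnover, read as fluorescence at 594 nm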
DNA-3-methyladenine glycosylase (Homo sapiens), sequence (P29372 whole entry): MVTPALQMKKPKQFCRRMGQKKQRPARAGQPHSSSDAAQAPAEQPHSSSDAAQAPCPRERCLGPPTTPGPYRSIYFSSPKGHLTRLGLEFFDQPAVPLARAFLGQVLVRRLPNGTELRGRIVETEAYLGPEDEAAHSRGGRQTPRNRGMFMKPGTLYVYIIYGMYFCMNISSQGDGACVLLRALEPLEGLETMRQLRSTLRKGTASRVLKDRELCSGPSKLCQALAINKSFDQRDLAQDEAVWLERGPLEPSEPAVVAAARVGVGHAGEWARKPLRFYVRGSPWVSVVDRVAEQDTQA
Description: Inhibition of MPG by quantifying inhibition of MPG-mediated cleavage and dissociation of quenched duplex DNA oligonucleotides, measured as fluorescence at 594 nm. To generate a functional strand incision and increase turn-over this assay is coupled to APE1.

[6] = target: T2, Endonuclease III-like protein 1 (Homo sapiens) (UniProt P78549);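 note: enzyme assay tracking NTHL1 cutting and release of a quenched double-stranded DNA oligo substrate, read as fluorescence at 594 nm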
T2 sequence (whole entry): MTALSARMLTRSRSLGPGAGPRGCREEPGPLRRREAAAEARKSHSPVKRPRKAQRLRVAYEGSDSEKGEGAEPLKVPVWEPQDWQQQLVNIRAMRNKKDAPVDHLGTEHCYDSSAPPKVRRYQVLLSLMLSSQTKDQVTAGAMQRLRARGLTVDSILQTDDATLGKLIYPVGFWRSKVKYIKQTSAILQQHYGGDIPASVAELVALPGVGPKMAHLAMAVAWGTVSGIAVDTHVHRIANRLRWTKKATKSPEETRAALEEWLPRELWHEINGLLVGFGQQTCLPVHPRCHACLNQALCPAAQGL
Description: Inhibition of NTHL1 by quantifying inhibition of NTHL1-mediated cleavage and dissociation of quenched duplex DNA oligonucleotides, measured as fluorescence at 594 nm.

[7] = target: T3, Endonuclease 8-like 2 (Homo sapiens) (UniProt Q969S2);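 note: fluorescence at 594 nm reports NEIL2 cutting and release of a quenched double-stranded DNA oligo substrate, reduced signal read as inhibition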
T3 sequence (whole entry): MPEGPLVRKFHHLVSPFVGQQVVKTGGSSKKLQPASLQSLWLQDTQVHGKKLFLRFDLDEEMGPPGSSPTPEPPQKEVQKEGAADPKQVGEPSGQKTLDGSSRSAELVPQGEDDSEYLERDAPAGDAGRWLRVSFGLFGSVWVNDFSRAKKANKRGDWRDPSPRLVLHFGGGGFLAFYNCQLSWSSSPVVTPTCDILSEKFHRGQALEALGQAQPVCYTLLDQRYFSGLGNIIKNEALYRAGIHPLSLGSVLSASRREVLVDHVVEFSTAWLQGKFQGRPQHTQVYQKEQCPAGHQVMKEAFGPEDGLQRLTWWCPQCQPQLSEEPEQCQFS
Description: Inhibition of NEIL2 by quantifying inhibition of NEIL2-mediated cleavage and dissociation of quenched duplex DNA oligonucleotides, measured as fluorescence at 594 nm.

[8] = target: T4, Single-strand selective monofunctional uracil DNA glycosylase (Homo sapiens) (UniProt Q53HV7);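 note: enzymatic SMUG1 assay coupled with APE1, reading fluorescence at 594 nm released when a quenched double-stranded DNA oligonucleotide substrate is cleaved and separated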
T4 sequence (whole entry): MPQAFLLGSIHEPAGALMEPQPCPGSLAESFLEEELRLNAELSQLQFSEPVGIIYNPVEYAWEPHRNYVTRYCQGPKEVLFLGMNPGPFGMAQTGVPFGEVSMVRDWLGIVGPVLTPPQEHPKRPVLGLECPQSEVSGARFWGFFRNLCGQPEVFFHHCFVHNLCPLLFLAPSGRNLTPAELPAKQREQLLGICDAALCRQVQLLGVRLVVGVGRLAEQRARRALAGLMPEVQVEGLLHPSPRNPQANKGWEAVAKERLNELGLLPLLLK
Description: Inhibition of SMUG1 by quantifying inhibition of SMUG1-mediated cleavage and dissociation of quenched duplex DNA oligonucleotides, measured as fluorescence at 594 nm. To generate a functional strand incision and increase turn-over this assay is coupled to APE1.

[9] = target: Endonuclease 8-like 1 (Homo sapiens) (UniProt Q96FI4);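 note: fluorescence at 594 nm from quenched duplex DNA oligonucleotides released by NEIL1 cleavage and strand separation, reported as reduction of this enzyme activity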
Endonuclease 8-like 1 (Homo sapiens), sequence (Q96FI4 whole entry): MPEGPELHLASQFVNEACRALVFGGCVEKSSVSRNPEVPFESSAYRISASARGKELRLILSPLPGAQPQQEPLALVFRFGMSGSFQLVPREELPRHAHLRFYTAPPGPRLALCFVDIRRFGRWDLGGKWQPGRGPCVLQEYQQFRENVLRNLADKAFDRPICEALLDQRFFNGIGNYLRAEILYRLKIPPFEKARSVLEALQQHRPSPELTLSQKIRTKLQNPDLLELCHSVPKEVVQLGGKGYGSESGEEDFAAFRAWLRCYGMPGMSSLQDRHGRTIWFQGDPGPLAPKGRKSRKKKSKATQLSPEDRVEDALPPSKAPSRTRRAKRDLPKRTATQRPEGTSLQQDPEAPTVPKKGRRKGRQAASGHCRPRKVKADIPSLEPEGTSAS
Description: Inhibition of NEIL1 by quantifying inhibition of NEIL1-mediated cleavage and dissociation of quenched duplex DNA oligonucleotides, measured as fluorescence at 594 nm.

[10] = target: Uracil-DNA glycosylase (Homo sapiens) (UniProt P13051);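 note: UNG excision on a quenched double-stranded DNA oligo probe, with APE1 added for strand incision and turnover, read as fluorescence at 594 nm as strands separate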
Uracil-DNA glycosylase (Homo sapiens), sequence (P13051 whole entry): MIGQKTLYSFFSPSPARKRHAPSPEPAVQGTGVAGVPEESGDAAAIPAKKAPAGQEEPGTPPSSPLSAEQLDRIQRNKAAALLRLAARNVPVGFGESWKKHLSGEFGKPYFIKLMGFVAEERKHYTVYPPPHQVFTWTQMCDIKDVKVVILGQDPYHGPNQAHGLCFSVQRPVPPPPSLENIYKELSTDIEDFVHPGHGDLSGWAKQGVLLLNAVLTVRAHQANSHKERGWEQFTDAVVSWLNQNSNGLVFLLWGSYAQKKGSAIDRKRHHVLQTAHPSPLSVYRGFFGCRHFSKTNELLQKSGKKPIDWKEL
Description: Inhibition of UNG by quantifying inhibition of UNG-mediated cleavage and dissociation of quenched duplex DNA oligonucleotides, measured as fluorescence at 594 nm. To generate a functional strand incision and increase turn-over this assay is coupled to APE1.

Structure (SMILES)	inhibition [1]	inhibition [2]	inhibition [3]	inhibition [4]	inhibition [5]	inhibition [6]	inhibition [7]	inhibition [8]	inhibition [9]	inhibition [10]
CCCNS(=O)(=O)Nc1ncnc(OCCOc2ncc(Br)cn2)c1-c1ccc(Br)cc1	18.3%	24.4%	26.1%	2.2%	19%	7.05%	2.51%	-4.93%	-4.06%	–
COc1cc(N)c(Cl)cc1C(=O)NC1CN2CCC1CC2 (stereo unspecified)	-0.441%	-9.33%	0.595%	1%	-7.22%	17.1%	–	-3.07%	-0.139%	-6.64%
CSc1cc2c(cc1C(F)(F)F)N(C(=O)Nc1cccnc1)CC2	11.2%	-9.84%	-9.06%	-1.82%	-3.29%	5.59%	16.2%	4.28%	6.91%	–
N[C@@H](Cn1cc(F)c(=O)[nH]c1=O)C(=O)O	12.4%	3.94%	6.98%	-9.73%	0.976%	0.568%	–	-7.64%	-2.06%	-5.2%
COc1cccc([C@H](O)C2CCN(CCc3ccc(F)cc3)CC2)c1OC	22.3%	14.4%	-6.25%	-1.39%	-10%	3.39%	-8.72%	4.47%	-1.98%	–
CCCCc1nc(Cl)c(CO)n1Cc1ccc(-c2ccccc2-c2nnn[nH]2)cc1	8.31%	1.95%	4.88%	-0.971%	-2.79%	11.4%	–	-6.19%	-2.87%	-9.96%
CCCCCNC(=O)NS(=O)(=O)c1cc([N+](=O)[O-])ccc1NC1CCCCC1	23.6%	22.7%	30.5%	8.51%	19.1%	14.4%	14.5%	13.9%	-1.39%	–
N=C(N)NC(=O)Cc1c(Cl)cccc1Cl	3.06%	-6.99%	-4.2%	-0.992%	-0.939%	20.2%	12.5%	3.31%	10.8%	–
O=C(O)c1n[nH]c2c1C[C@H]1C[C@@H]21	-5.48%	-4.32%	-6.12%	-1.41%	-4.72%	21.7%	-1.48% and -4.98%	-5.22%	-0.352% and 3.65%	–
COc1ccc2c(c1)C(C(=O)N(Cc1ccc(N(C)C)cc1)c1ccc(C(C)C)cc1)CCC2 (stereo unspecified)	15.3%	26.8%	34.4%	3.53%	34.2%	0.568%	–	-6.91%	4.6%	-2.75%
CC[C@H]1CN(c2nc(N)c(C(N)=O)nc2Cl)CCN1C1CCN(Cc2ccc(Cl)cc2)CC1	2.57%	-2.17%	-3.97%	–	-5.95%	24.5%	3.47%	-7.08%	5.05%	-8.52%
COC(=O)N1CCN(C(=O)Cc2ccc(Cl)c(Cl)c2)C(CN2CCCC2)C1 (stereo unspecified)	-7.07%	11.3%	4.69%	–	-2.31%	19.6%	0.414%	-9.51%	4.16%	-7.49%
CCCCC[C@H](O)/C=C/[C@@H]1[C@@H](C/C=C\CCCC(=O)O)[C@@H](O)C[C@H]1O	25.5%	-2.06%	-4.2%	–	-6.92%	7.79%	0.515%	8.11%	7.21%	-8.4%
CN(C)CCCc1cc(C(=O)Nc2ccc(-c3ccncc3)cc2)ccc1O	22.9%	15.3%	5.24%	–	5.48%	12.1%	8.82%	1.23%	0.602%	-0.815%
Cc1nnn(-c2ccc(-c3ccc(C4(C(=O)O)CC4)cc3)cc2)c1NC(=O)O[C@H](C)c1ccccc1	20.7%	34.4%	17.2%	-1.41%	13.9%	-7.6%	4.01%	4.91%	-1.39%	–
N#Cc1ccc(O[C@@H]2c3ccccc3C[C@H]2N2CCC[C@@H](N)C2)c(Cl)c1	18.8%	-4.66%	0.102%	–	-4.18%	3.87%	3.73%	-4.87%	13.1%	-1.13%
CC(C)(O)c1cnc(N2C[C@@]3(CCC[C@](C)(Cn4cnc5ccc(C#N)cc54)C3)OC2=O)cn1	6.22%	9.84%	47.1%	–	10.5%	8%	5.76%	2.98%	1.2%	-2.44%
NCCc1cccs1	6.37%	2.05%	-1.84%	–	-5.51%	8.82%	9.33%	-0.24%	7.57%	-3.89%
O=C(Nc1cc(-c2ccccc2)nn1-c1ccccc1F)c1ccc([N+](=O)[O-])cc1	-4.55%	-1.82%	7.68%	–	9.2%	24.5%	2.96%	-6.29%	-2.66%	-0.319%
O=S1(=O)NCN(C2CC2)c2ccc(F)cc21	10.8%	0.854%	6.74%	–	3.15%	10.5%	8.57%	-1.26%	3.86%	-3.37%
N#Cc1cccc(-c2nc(-c3cccnc3)no2)c1	-5.18%	-5.03%	-6.2%	–	-9.43%	-1.08%	-2.39%	-8.21%	2.53%	-2.96%
CC(C)[C@@H]1CC[C@@H](C)C[C@@H]1P(=O)(c1ccccc1)c1ccccc1	-6.96%	3.26%	1.29%	-2.54%	-5.97%	6.35%	–	-9.39%	-6.96%	–
CNc1nc(-c2ccc3c(N)n[nH]c3c2)cc(N2C[C@@H](C(=O)NC3CCCCC3)CC[C@H]2C)n1	57.1%	21.4%	25.6%	–	23.1%	-2%	-5.15%	20.7%	3.84%	5.37%
